Measurements: patent US6492418B2, “Compositions containing a benzamide disulfide derivative for treating allergic diseases” (Alcon Universal Ltd., priority 2000, dated 2002)
Where “and” joins values, the source holds several entries; their conditions need not be identical. Equal entries are not always repeated. Where two headings read alike, the source gives them in different places.

Tested on: human conjunctival tissue mast cells
Test: Inhibition of anti-IgE induced histamine release from human conjunctival tissue mast cells (HCTMC)
Format: cell-based
Description: Methods detailing preparation of mono-dispersed HCTMC and mediator release studies with these cells have been described (U.S. Pat. No. 5,360,720 and Miller et al, Ocular Immunology and Inflammation, 4(1):39-49 (1996)). Briefly, human conjunctival tissue mast cells were isolated from post-mortem tissue donors obtained within 8 hours of death by various eye banks and transported in Dexsol® corneal preservation medium, or equivalent. Tissues were enzymatically digested by repeated exposure (30 min. at 37° C.) to collagenase and hyaluronidase (2× with 200 U each/gram tissue, then 2-4 × with 2000 U each/gram tissue) in Tyrode's buffer containing 0.1% gelatin. (Tyrode's buffer (in mM): 137 NaCl, 2.7 KCl, 0.35 NaH2PO4, 1.8 CaCl2, 0.98 MgCl2, 11.9 NaHCO3, and 5.5 glucose). Each digestion mixture was filtered over Nitex® cloth (100 μm mesh, Tetko, Briarcliff Manor, N.Y.) and washed with an equal volume of buffer. Filtrates were centrifuged at 825×g (7 min). Pellets were resuspended in buffer then combined for enrichment over a […] Percoll® cushion. The enriched pellet was washed, resuspended in supplemented RPMI 1640 medium and incubated at 37° C. to equilibrate.
Cells were harvested from the culture plate and counted for viability (trypan blue exclusion) and mast cell number (toluidine blue O). Mast cells (5000/tube; 1 mL final volume) were challenged (37° C.) for 15 min with goat-anti-human IgE (10 μg/mL) following treatment (15 minutes; 37° C.) with test drug or Tyrode's buffer. Total and non-specific release controls were exposed to 0.1% Triton X-100 and goat IgG (10 μg/mL), respectively. The reaction was terminated by centrifugation (500×g, 4° C., 10 min). Supernatants were stored at −20° C. until analyzed for histamine content by RIA (Beckman Coulter, Chicago, Ill.).
All test drugs were made to solution immediately prior to use. Each was dissolved in DMSO at 10 mM or greater concentration and then diluted in Tyrode's buffer containing 0.1% gelatin over the concentration for evaluation.
Inhibition of histamine release was determined by direct comparison of with anti-IgE challenged mast cells using Dunnett's t-test (Dunnett, “A multiple comparison procedure for comparing treatments with a control”, J. Amer. Stat. Assoc. (1955), 50:1096-1121).

[1] = Homo sapiens, Mast cell, bracketed value, apparently the mean of the individual determinations in the same cell, read-out: IC50(nM), value in square brackets
[2] = goat-anti-human IgE 10 μg/mL challenge 15 min after 15 min drug treatment, individual determinations (values outside brackets), read-out: IC50

IC50 [1] [nM] | IC50 [2] | IC50 (Homo sapiens, Mast cell, 0.25 h, goat-anti-human IgE 10 μg/mL challenge 15 min after 15 min drug treatment, individual determinations (values outside brackets), read-out: IC50) [nM] | Compound
105 | 78 nM and 199 nM and 39 nM |  | O=C(NCCCN1CCOCC1)c1ccccc1SSc1ccccc1C(=O)NCCCN1CCOCC1 [Compound 2]
148 |  |  | C=CCNC(=O)c1ccccc1SSc1ccccc1C(=O)NCC=C [Compound 3]
282 |  |  | CNC(=O)c1ccccc1SSc1ccccc1C(=O)NC [Compound 4]
122 | 107 nM and 219 nM and 229 nM and 84 nM and 71 nM |  | CC(O)CNC(=O)c1ccccc1SSc1ccccc1C(=O)NCC(C)O (stereo not drawn) [Compound 5]
312 | 222 nM | 402 | CNC(=O)c1cccc(SSc2cccc(C(=O)NC)c2)c1 [Compound 6]
